PMC5826917, “A small molecule inhibitor of Nicotinamide N-methyltransferase for the treatment of metabolic disorders” (Scientific Reports, 2018)

Experiments:
Dopamine Receptor 1 (D1) = Dopamine Receptor 1 (D1) (Homo sapiens, UniProt P21728); assay: Selectivity panel: D1; assay type: cell-based
Experimental: (§1) Supplement 41598_2018_22081_MOESM1_ESM.docx, table 2: Supplementary table 2: Selectivity profile of JBSNF-000088 (at 10 µM) vs a panel of 34 receptors, channels and enzymes. | column: E% (agonistic); I% (antagonistic or inhibitory)

[1] = biological target: Muscarinic Receptor 1 (CHRM1) (Homo sapiens, UniProt P11229); assay: Selectivity panel: CHRM1; assay type: cell-based
Muscarinic Receptor 1 (CHRM1), sequence (P11229 whole entry): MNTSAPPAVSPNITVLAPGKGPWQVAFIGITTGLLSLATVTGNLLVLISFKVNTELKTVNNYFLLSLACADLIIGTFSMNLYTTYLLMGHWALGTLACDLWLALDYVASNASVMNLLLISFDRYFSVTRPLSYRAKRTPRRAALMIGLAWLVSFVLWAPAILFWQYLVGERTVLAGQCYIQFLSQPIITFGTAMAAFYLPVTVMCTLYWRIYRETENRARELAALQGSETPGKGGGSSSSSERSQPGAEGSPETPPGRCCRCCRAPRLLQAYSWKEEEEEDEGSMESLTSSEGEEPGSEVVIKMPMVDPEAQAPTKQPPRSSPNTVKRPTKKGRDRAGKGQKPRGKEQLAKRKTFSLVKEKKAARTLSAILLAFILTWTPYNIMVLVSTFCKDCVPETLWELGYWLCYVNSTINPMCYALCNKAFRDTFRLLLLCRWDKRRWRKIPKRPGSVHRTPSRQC
Experimental: as §1

Dopamine Transporter = Dopamine Transporter (Homo sapiens, UniProt Q01959); assay: Selectivity panel: dopamine transporter; assay type: binding; conditions: read-out: I% (antagonistic or inhibitory), Dopamine Transporter
Dopamine Transporter, sequence (Q01959 whole entry): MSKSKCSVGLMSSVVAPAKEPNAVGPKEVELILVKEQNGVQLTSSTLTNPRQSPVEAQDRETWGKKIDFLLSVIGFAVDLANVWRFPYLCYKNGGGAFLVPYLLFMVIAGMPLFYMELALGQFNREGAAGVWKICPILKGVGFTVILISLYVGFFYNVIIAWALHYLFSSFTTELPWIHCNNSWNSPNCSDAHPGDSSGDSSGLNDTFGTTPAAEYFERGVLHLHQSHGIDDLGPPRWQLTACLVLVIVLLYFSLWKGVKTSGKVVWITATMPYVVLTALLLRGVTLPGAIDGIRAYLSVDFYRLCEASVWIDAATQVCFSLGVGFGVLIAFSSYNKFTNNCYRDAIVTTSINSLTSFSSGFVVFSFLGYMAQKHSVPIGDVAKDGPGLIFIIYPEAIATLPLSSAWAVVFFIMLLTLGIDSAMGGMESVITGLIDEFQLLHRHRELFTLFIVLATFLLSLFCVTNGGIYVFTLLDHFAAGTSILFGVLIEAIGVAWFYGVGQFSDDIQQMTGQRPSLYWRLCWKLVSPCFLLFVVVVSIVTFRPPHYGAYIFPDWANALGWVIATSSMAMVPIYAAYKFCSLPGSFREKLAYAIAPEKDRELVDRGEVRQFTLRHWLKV
Experimental: Supplement 41598_2018_22081_MOESM1_ESM.docx, table 2: Supplementary table 2: Selectivity profile of JBSNF-000088 (at 10 µM) vs a panel of 34 receptors, channels and enzymes. | column: I% (antagonistic or inhibitory)

hERG = hERG (Homo sapiens, UniProt Q12809); conditions: 10 µM
hERG, sequence (Q12809 whole entry): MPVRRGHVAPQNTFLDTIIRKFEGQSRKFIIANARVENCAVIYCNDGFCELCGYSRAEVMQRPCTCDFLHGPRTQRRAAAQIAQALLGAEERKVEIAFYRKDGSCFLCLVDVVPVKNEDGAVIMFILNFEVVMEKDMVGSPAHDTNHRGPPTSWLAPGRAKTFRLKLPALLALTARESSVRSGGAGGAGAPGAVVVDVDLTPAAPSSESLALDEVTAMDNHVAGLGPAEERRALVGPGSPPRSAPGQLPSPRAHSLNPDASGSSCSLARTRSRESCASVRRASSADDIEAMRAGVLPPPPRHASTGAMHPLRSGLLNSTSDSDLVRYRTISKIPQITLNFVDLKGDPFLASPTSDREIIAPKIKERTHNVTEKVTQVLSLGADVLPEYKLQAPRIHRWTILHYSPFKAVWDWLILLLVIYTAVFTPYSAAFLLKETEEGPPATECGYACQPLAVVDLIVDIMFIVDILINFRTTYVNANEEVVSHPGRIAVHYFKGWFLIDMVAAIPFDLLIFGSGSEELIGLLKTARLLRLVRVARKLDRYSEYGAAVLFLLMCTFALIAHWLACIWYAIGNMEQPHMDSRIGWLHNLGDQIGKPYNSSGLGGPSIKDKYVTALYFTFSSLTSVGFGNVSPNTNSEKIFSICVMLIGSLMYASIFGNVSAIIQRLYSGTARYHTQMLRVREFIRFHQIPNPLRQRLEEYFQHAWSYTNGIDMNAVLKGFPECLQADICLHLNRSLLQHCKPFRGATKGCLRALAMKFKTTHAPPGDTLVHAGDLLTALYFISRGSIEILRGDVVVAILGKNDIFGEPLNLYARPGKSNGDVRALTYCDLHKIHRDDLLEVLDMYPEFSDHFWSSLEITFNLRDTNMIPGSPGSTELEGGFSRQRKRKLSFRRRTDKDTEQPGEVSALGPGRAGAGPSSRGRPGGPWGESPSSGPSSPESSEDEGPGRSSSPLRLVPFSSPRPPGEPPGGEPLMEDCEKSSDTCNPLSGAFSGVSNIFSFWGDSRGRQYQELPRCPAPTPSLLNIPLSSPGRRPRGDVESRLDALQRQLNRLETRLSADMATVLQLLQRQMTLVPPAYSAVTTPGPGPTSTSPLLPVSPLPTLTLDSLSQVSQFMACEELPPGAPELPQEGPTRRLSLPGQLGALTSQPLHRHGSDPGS

[2] = biological target: Adrenoreceptor alpha 2A (ADRA2A) (Homo sapiens, UniProt P08913); assay: Selectivity panel: ADRA2A; assay type: cell-based
Adrenoreceptor alpha 2A (ADRA2A), sequence (P08913 whole entry): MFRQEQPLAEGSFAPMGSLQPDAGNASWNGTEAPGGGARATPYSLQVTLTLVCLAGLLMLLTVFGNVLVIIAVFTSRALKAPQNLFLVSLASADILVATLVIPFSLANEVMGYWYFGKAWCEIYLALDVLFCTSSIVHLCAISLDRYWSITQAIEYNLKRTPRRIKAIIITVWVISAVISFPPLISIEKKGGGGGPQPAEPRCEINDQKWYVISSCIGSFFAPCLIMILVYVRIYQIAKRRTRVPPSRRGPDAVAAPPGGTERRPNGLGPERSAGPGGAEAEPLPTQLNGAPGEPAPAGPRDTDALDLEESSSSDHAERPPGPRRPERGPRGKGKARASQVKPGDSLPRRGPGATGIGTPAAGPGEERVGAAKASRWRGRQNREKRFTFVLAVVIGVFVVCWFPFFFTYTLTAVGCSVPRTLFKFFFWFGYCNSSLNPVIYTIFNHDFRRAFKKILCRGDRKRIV
Experimental: as §1

[3] = system: mice with diet-induced obesity (DIO); assay: Chronic efficacy study in diet-induced obesity (DIO) mice; assay type: in vivo, C57BL6/N mice
Experimental: Samples for MNA were analyzed employing a fit-for-purpose LC-MS/MS method. PE-Sciex API-4000 triple quadrupole (PerkinElmerSciex Instruments, Boston, MA) mass spectrometer was employed for this analysis. Samples (5 µL) were injected onto Kinetex HILIC (50 × 4.6 mm, 2.6 µm; Phenomenex, Torrance, CA, USA) column connected to Shimadzu VP (Shimadzu, Japan) LC system. The gradient mobile phase mixture of 0.2% formic acid and acetonitrile was delivered at a flow rate of 0.45 ml min-1 into the mass spectrometer electrospray ionization (ESI) chamber. Quantitation was achieved by MS/MS detection in positive ion mode for MNA and internal standard (d4–MNA). Detection of the ions was performed in the multiple reaction monitoring (MRM) mode, monitoring the transition of the m/z 137 precursor ion to the m/z 92 product ion for MNA and m/z 141 precursor ion to the m/z 84 product ion for d4-MNA (internal standard).
A simple protein precipitation extraction method was followed for extraction of N-methylnicotinamide from plasma and various tissue homogenate samples. The tissue samples were homogenized with 1:3 proportions of phosphate buffer saline (PBS) and this homogenate was used for N-Methylnicotinamide determinations. To an aliquot of ~50 μL of plasma/ liver homogenate/ adipose tissue homogenate samples ~300 µl of acetonitrile containing IS (d4-MNA) solution was added, followed by vortex for ~3 minutes and centrifuged for 10 minutes at 14,000 rpm. The supernatant was separated and transferred to pre-labeled HPLC vials and analyzed by LC-MS/MS system.
Male C57BL6/N (Vivo Bio Tech Ltd, India), ob/ob (B6.V-Lepob/OlaHsd) and its lean control (Envigo laboratories Inc, USA) and db/db (BKS.Cg- + Leprdb/ + Leprdb/OlaHsd) and its lean control (Envigo laboratories Inc, USA) were housed in individually ventilated cages (n = 5/cage) under standard laboratory conditions. The study room environment was maintained at a temperature of 21–24 °C and, relative humidity at 40–70%. The animal rooms were maintained under 12 h light and dark cycle. Animals were provided with ad libitum access to water and food (except where noted otherwise, e.g. during fasting prior for glucose tolerance tests, fasting prior to terminal sacrifice). Animals were acclimatized for 1 week before initiation of studies. For Diet induced obesity (DIO) mice study, C57BL6/N mice were maintained on rodents chow diet (Teklad; Harlan) or HFD (60% Kcal; Research diet) for 14 weeks before study initiation and throughout the study period. ob/ob and db/db mice and their lean controls were maintained on rodents chow diet (Teklad; Harlan). All the experiments were approved by Institutional Animal Ethics Committee (IAEC) of Jubilant Biosys Ltd, India.
Lean control + Vehicle and HFD + Vehicle Control groups (G1 and G2) mice were administered with vehicle. Dose formulations of HFD + JBSNF-000088, 50 mg kg^−1, po, bid were administered at dose volume of 5 mL kg^−1 body weight to G3 mice. Similar pattern was followed for ob/ob mice and db/db mice studies. The dose volume for individual animals was calculated based on the most recently recorded body weight during the study period. […] Cage side observations of animals for visible clinical signs, was carried out once daily throughout the study period. Individual animal body weights were recorded twice weekly during the study period.
The ob/ob mice were 12 weeks of age at the start of the study and db/db mice were 8 weeks of age at the start of the study. DIO mice were 20 weeks of age at the start of the study. In each study, non-diabetic lean mice comprised the control group which received vehicle (0.5% w/v HEC and 0.5% v/v Tween 80) and obese or diabetic mice were randomly assigned to two groups based on body weight and unfasted glucose which received either vehicle (0.5% w/v HEC and 0.5% v/v Tween 80) or JBSNF-000088, 50 mg kg^−1, po, bid for 30 days.

in vitro = conditions: human, Caco-2
[4] = system: K+ Channel Voltage Dependent; assay: Selectivity panel: K+ channel; assay type: binding; conditions: 10 µM
[5] = biological target: adrenergic, alpha-1A-, receptor (ADRA1A) (Homo sapiens, UniProt P35348); assay: Selectivity panel: ADRA1A; assay type: cell-based
adrenergic, alpha-1A-, receptor (ADRA1A), sequence (P35348 whole entry): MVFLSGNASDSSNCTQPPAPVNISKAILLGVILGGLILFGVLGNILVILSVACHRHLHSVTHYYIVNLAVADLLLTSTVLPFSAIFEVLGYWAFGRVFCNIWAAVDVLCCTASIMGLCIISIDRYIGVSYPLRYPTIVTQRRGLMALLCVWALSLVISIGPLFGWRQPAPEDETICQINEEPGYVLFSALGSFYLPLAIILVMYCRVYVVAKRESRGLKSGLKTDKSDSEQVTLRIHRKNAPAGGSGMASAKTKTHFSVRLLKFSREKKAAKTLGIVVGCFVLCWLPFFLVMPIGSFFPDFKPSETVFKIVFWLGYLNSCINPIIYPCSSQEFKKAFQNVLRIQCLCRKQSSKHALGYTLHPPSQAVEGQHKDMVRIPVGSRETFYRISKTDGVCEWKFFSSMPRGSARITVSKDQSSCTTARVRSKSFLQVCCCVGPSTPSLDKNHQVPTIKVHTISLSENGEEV
Experimental: as §1

SK+Ca channel- = assay: Selectivity panel: SK+Ca channel; assay type: binding; conditions: 10 µM
[6] = system: Ca2+ Channel (L-Type DHP Site); assay: Selectivity panel: Ca2+ channel; assay type: binding; conditions: 10 µM

Dopamine Receptor 1 (D1), sequence (P21728 whole entry): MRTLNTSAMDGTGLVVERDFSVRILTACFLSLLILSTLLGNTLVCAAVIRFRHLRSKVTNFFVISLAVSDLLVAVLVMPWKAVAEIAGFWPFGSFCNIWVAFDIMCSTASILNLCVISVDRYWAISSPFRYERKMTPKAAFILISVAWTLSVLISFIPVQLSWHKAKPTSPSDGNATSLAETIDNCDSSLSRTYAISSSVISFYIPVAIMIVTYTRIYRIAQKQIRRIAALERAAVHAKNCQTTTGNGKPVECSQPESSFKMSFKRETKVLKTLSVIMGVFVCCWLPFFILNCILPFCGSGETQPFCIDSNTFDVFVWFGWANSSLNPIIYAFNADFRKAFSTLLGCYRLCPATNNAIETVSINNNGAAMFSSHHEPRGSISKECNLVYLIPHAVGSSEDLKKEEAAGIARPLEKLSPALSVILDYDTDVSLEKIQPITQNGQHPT

SMILES: COc1ccc(C(N)=O)cn1 [JBSNF-000088, 6-methoxynicotinamide]
- E% (agonistic), D1 (Dopamine Receptor 1 (D1); 10 µM): 0%
- inhibition at 10 µM (Dopamine Receptor 1 (D1); read-out: I% (antagonistic or inhibitory), D1): -3%
- E% (agonistic), CHRM1 ([1]; 10 µM): -3%
- inhibition at 10 µM ([1]; read-out: I% (antagonistic or inhibitory), CHRM1): -7%
- inhibition at 10 µM (Dopamine Transporter): 7%
- hERG inhibition (hERG): < 30%
- E% (agonistic), ADRA2A ([2]; 10 µM): 4%
- inhibition at 10 µM ([2]; read-out: I% (antagonistic or inhibitory), ADRA2A): -12%
- body weight (%) ([3]; 50 mg kg^−1 b.i.d. p.o., four weeks, vs vehicle): statistically significant reduction
- cumulative food intake ([3]; 50 mg kg^−1 b.i.d. p.o., vs vehicle): comparable
- fed plasma insulin ([3]; day 14, p < 0.01 vs HFD control): trend to a reduction in fed plasma insulin that was statistically significant on day 14
- fed blood glucose ([3]; day 21, p < 0.01 vs vehicle control): statistically significant reduction
- oral glucose tolerance ([3]; day 28, normalized to chow control group): statistically significant improvement
- AUC blood glucose (OGTT) ([3]; day 28, p < 0.001 vs HFD control): Significantly lower
- MNA levels in visceral WAT ([3]; p < 0.0001 vs HFD control): statistically significant reduction
- plasma insulin at 0 and 15 minutes of OGTT ([3]; p < 0.0001 vs HFD control): statistically significant lower
- HOMA-IR index ([3]; p < 0.0001 vs vehicle-treated HFD controls): statistically significant improvement
- plasma triglyceride ([3]; p < 0.001 vs HFD control, data not shown): statistically significant reduction
- liver triglyceride ([3]; p < 0.05 vs HFD control, data not shown): statistically significant reduction
- Papp (in vitro): 25.2 ×10⁻⁶ cm/s
- efflux ratio (in vitro): 1.04
- I% (antagonistic or inhibitory), K+ Channel Voltage Dependent [4]: 3%
- E% (agonistic), ADRA1A ([5]; 10 µM): -2%
- inhibition at 10 µM ([5]; read-out: I% (antagonistic or inhibitory), ADRA1A): -3%
- I% (antagonistic or inhibitory), SK+Ca channel (SK+Ca channel-): -4%
- I% (antagonistic or inhibitory), Ca2+ Channel (L-Type DHP Site) [6]: 0%
